Experimental findings from article PMC2374555, “Inhibition of aromatase activity and expression in MCF-7 cells by the chemopreventive retinoid N -(4-hydroxy-phenyl)-retinamide” (British Journal of Cancer, 2000) are described below.

In the assay the target is T1, aromatase (Homo sapiens, UniProt P11511).
T1 construct: gene CYP19A1; microsomes isolated from JEG-3 human choriocarcinoma cells
T1 sequence (P11511 1-503): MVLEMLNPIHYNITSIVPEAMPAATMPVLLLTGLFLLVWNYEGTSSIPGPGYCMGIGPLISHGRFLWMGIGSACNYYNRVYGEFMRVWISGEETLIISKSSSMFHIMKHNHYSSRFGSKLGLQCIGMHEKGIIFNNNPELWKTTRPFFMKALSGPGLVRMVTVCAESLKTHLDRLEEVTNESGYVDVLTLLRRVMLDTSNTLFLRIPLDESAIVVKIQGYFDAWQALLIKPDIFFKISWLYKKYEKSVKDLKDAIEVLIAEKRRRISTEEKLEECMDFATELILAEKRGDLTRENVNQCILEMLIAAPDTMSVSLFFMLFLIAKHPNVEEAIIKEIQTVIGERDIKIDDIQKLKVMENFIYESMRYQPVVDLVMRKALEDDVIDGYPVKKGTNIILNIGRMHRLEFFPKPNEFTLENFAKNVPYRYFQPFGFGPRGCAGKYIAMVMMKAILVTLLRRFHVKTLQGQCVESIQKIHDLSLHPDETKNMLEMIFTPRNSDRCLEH
The experiment in a line: 3H2O release aromatase assay in JEG-3 microsomes, Lineweaver-Burk kinetics; also intact MCF-7 cells. The assay is classed as biochemical.

Molecules are shown by their SMILES.

As to `CC1=C(/C=C/C(C)=C/C=C/C(C)=C/C(=O)Nc2ccc(O)cc2)C(C)(C)CCC1` [4-HPR, N-(4-hydroxyphenyl)-retinamide], inhibition was half-maximal at 1 µM (IC50).
